How the values were obtained:
[1] = test system: LNCaP cells; assay: Cell-cycle analysis (propidium iodide, FACScan); assay type: cell-based, human; settings: 1 μM, 6 days
Procedure: LNCaP cells were treated with 1 or 5 μM of ATRA or each of the RAMBAs for 6 days. The cells were trypsinised and washed twice in PBS (Life Technologies, Grand Island, NY, USA). The cells were fixed by adding 70% ethanol and stored at −20°C until staining. The cells were washed twice in PBS. A volume of 1 ml of a propidium iodide (PI) solution (50 μg ml^−1 in PBS) and 500 μl of an RNase stock solution (100 μg ml^−1) were added to the cells and incubated for 1 h in the dark. Approximately 10^4 stained cells were then analysed by flow cytometry (Becton Dickenson FACScan, Franklin Lakes, NJ, USA). The percentages of cells in G0/G1, S, and G2/M phases of the cell cycle as well as percentage of apoptotic cells (sub G0/G1) were determined using MODFIT LT software (Verity Software House, San Jose, CA, USA). The percentages of cells in G0/G1, S, and G2/M phases of the cell cycle were obtained from diploid cells in the sample and the percentage of apoptotic cells (sub G0/G1) was obtained from total cells minus the debris.

[2] = test system: Bcl-2; assay: Western-blot analysis of Bcl-2 in LNCaP cells; assay type: cell-based, human; settings: data not shown
Procedure: The Western-blot protocol described for cytokeratins 8/18 was followed with some exceptions. Cell lysates (50 μg) were separated on a 15% SDS–PAGE gel. All washing was performed using TBS containing 1% Tween 20 (TBS-T). Blocking was performed using 5% milk in TBS-T. Incubations were performed using rabbit monoclonal IgG antibody to Bad and Bcl-2 (1 : 1000), as well as horseradish peroxidase-linked anti-rabbit IgG antibodies (1 : 2000) (Cell Signaling Technology, Beverly, MA, USA).

[3] = test system: LNCaP cells; assay: TUNEL assay of apoptosis in LNCaP cells; assay type: cell-based, human; settings: 1 or 5 μM, 6 days
Procedure: A total of 4000 LNCaP cells were plated on each well of an eight-well Lab-Tek II® chamber slide (Nalge Nunc International, Naperville, IL, USA). The LNCaP cells were then treated with either 1 or 5 μM of ATRA or RAMBA for 6 days. Cells were then fixed in 4% paraformaldehyde solution in dH2O. The cells were then processed and stained with FITC (fluorescein isothiocyanate) according to kit instructions (In situ cell death detection kit, AP, Roche Diagnostics Corp., Indianapolis, IN, USA). The FITC-stained cells are then mounted with VectorShield® mounting medium for fluorescence with DAPI (4′,6-diamidine-2′-phenylindole dihydrochloride) nuclear stain (Vector Laboratories, Inc., Burlingame, CA, USA) and covered with ApopTag® plastic coverslips (Intergen Company, Purchase, NY, USA). The slides were then examined under fluorescence microscopy (Eclipse E400, Nikon, Inc., Melville, NY, USA) and counted using SPOT Advance® 3.5 software (Diagnostic Instruments, Inc., Sterling Heights, MI, USA).

[4] = test system: human breast T47D cancer cells; set-up: method as in Van Heusden et al, 2002; settings: 1 μM, ref Van Heusden et al, 2002; cited from earlier work

Q: Which results are given for `CC1=C(/C=C/C(C)=C/C=C/C(C)=C/C(=O)Nc2ccc(O)cc2)C(C)(C)CCC1` [Compound 4-HPR, reference compound]?
A: Sub-G1 (%) ([1]; apoptotic cells, control 9.02): 7.52%; G2/M (%) ([1]; control 2.20): 12.03%; S (%) ([1]; control 15.01): 9.18%; G0/G1 (%) ([1]; control 82.78): 79.53%; expression of Bcl-2 [2]: did not effect; induction of apoptosis (TUNEL) [3]: concentration-dependent induction of apoptosis

Q: Which “enhancement of the antiproliferative activity of ATRA” value [4] does the source give for `C[C@@H]([C@H](c1ccc(Nc2nc3ccccc3s2)cc1)n1ccnc1)N(C)C` [Compound R116010] here?
A: Its value is “threefold”.
